Measurements reported in patent US11833148B2, “Methods for treating or limiting development of cardiovascular disease-related neurological disorders” (ARIZONA BOARD OF REGENTS ON BEHALF OF THE UNIVERSITY OF …, priority 2018, dated 2023).
“Also recorded” adds a separate entry of the source.

Assays:
Type in all cases: in vivo
[1] = test system: hippocampal cytokine levels (IL-2, IL-10, IL-4, IL-5, IL-6, IL-12p70, IFNγ, KC/GRO, TNFα, IL-10); assay: Hippocampal cytokine levels in TAC mice by multi-plexed immunoassay (Meso Scale Discovery); details: daily SQ 2 mg/kg/mouse, compared to saline treated TAC controls, data not shown
Method: (§1) Treatment was initiated one week after TAC surgery (daily SQ injections at a dose of 2 mg/kg/mouse) when aortic constriction was confirmed. The treatment groups (n=12 per groups) included sham surgery controls treated with saline, TAC surgery controls treated with saline, TAC surgery animals treated with A (1-7), TAC surgery animals treated with Compound 7 and TAC surgery animals treated with Compound 10. Blood pressure was measured approximately 5-6 weeks after surgery by tail cuff and unaffected by Compound 7 or Compound 10. […] Novel object recognition (NOR) is a test of non-spatial memory. […] The preference of the animal for a novel object over a familiar object exploits the natural tendency of rodents to explore novel objects, was tested 10 weeks after surgery.

TAC mice [2] = assay: Observation of adverse events after TAC surgery combined with Mas agonist treatment; details: daily SQ 2 mg/kg/mouse
Method: as §1

TAC mice [3] = assay: Blood pressure by tail cuff in trans-aortic constriction (TAC) mice; details: daily SQ 2 mg/kg/mouse; for diastolic blood pressure / mean arterial pressure (MAP): approximately 5-6 weeks post-surgery, 30 minutes after dosing, compared to saline treated TAC mice
Method: FIG. 1 is a graph showing the effects of treatment on systolic blood pressure. At approximately 5-6 weeks post-surgery, systolic blood pressure was measured 30 minutes after dosing by tail cuff.
FIG. 2 is a graph showing the effects of treatment on diastolic blood pressure. At approximately 5-6 weeks post-surgery, diastolic blood pressure was measured 30 minutes after dosing by tail cuff.
FIG. 3 is a graph showing the effects of treatment on mean arterial pressure (MAP). At approximately 5-6 weeks post-surgery, mean arterial pressure was measured 30 minutes after dosing by tail cuff.
as §1

TAC mice [4] = assay: Novel object recognition (NOR) test in TAC mice; details: daily SQ 2 mg/kg/mouse, 10 weeks post-surgery, compared to saline treated TAC mice
Method: FIG. 4 is a graph showing the effects of treatment on novel object recognition (NOR). At 10 weeks post-surgery, the mice underwent NOR test to assess cognitive function.
as §1

Compound	hippocampal levels of all cytokines tested (IL-2, IL-10, IL-4, IL-5, IL-6, IL-12p70, IFNγ, KC/GRO, TNFα, IL-10) [1]	observable adverse events (TAC mice [2])	blood pressure (TAC mice [3]; approximately 5-6 weeks after surgery)	diastolic blood pressure (TAC mice [3])	mean arterial pressure (MAP) (TAC mice [3])	novel object recognition (NOR) memory / cognitive function (TAC mice [4])
CCCCOC(=O)NS(=O)(=O)c1ccc(OC(F)(F)F)cc1-c1ccc(Cn2ccnc2)cn1 [Compound 7]	decreased	no observable adverse events	unaffected	no significant effect	no significant effect	restored NOR memory to sham levels; also recorded: significantly increased cognition
A (1-7): comparator treatment in TAC mice, printed only as A (1-7) (DRVYIHP; Angiotensin 1-7; UniProt P01019 25-31, looked up) [reference compound]				significantly reduced	significantly reduced	
